Experimental data: patent publication EP1621201A1, “Hesperidin for prophylaxis and treatment of diseases of the central nervous system, in particular Alzheimer's and Parkinson's diseases, for therapy after stroke as well as for chronic pain” (NeuroCode AG, priority 2004, dated 2006)

Tested on: Fischer-344 Ratten
Experiment: Tele-Stereo-EEG in freely moving rats (field potentials from frontal cortex, hippocampus, striatum, reticular formation; power density spectra)
Assay type: in vivo, Ratte
Settings: rat
Description: Die Veränderungen der EEG-Frequenzen nach intraperitonealer Gabe von Salzlösung (Kontrolle) bzw. einer Dosis von Hesperidin (80 und 160 mg/kg Körpergewicht) wurden bestimmt.
Die Untersuchungen wurden analog der durch W. Dimpfel beschriebenen Methode (Dimpfel W Preclinical data base of pharmaco-specific rat EEG fingerprints (Tele-Stereo-EEG). Eur J Med Res (2003) 8: 199-207) folgendermaßen durchgeführt:
Zwölf männlichen erwachsenen Fischer-344 Ratten (Tag-Nacht konvertiert) wurden im Alter von 6 Monaten 4 bipolar konzentrische Elektroden zusammen mit einem Mikrostecker auf einer gemeinsamen Basisplatte implantiert. Der Stecker diente der Aufnahme eines 4-Kanal-Senders zur telemetrischen Übertragung der aus frontalem Kortex, Hippokampus, Striatum und Formation Reticularis abgeleiteten Feldpotentiale. Die Signale wurden auf einem Computer System (Software "EEG-Analyse", Betriebssystem OS Science, Laborrechner "LabTeam" der Firma MediSyst, Linden, DE) in Echtzeit einer Fast-Fourier-Transformation unterworfen und die Leistungsdichtespektren jeweils über 15 bis 60 Minuten gemittelt. Die Unterteilung der Spektren in 6 verschiedene Frequenzbereiche erlaubte die Erfassung pharmako-spezifischer Veränderungen in Bezug auf die jeweils vor Applikation gemessenen Vorwerte innerhalb dieser Frequenzbänder.
Zum Applikationsprotokoll der Substanzen: die Substanzen wurden i.p. 45 Minuten nach Beginn der Messungen (Vorwert) injiziert. Fünf Minuten später wurden die Messungen wieder gestartet, mindestens über die nächsten 5 Stunden kontinuierlich analysiert und in 60-minütigen Perioden zusammengefaßt. Die Testsubstanz wurde in einer Dosierung von 80 und 160 mg/kg appliziert. Die experimentelle Serie wurde mit der Injektion von Salzlösung (Kontrolle), die zu keiner auffälligen Änderung führte, begonnen.
Der statistische Vergleich der Versuche zu den Ergebnissen, die nach Gabe von Salzlösung gemessen wurde, erfolgte mit Hilfe einer multivariaten Analyse nach Ahrens und Läuter (siehe H. Ahrens, J. Läuter "Mehrdimensionale Varianzanalyse" (1974), Akademie Verlag, Berlin) auf der Basis der Veränderungen innerhalb der einzelnen Frequenzbänder in allen Hirnregionen als Variablen.

With `COc1ccc([C@@H]2CC(=O)c3c(O)cc(O[C@@H]4O[C@H](CO[C@@H]5O[C@@H](C)[C@H](O)[C@@H](O)[C@H]5O)[C@@H](O)[C@H](O)[C@H]4O)cc3O2)cc1O` [Hesperidin, Hesperetin 7-rhamnoglucosid] the “zeitabhängige Veränderungen der EEG-Frequenzen (delta, theta und alpha2 Frequenzen)” value (80 or 160 mg/kg Hesperidin i.p., Fig. 3a and 3b) was “nehmen statistisch signifikant und dauerhaft ab”, the “correlation of the EEG pattern with patterns of drugs for neurodegenerative diseases, pain and stroke (discriminant analysis)” value (i.p. single dose, compared with Tacrin, Piracetam, Memantine, Metamizol, Amphetamin, no correlation with patterns of drugs for other indications) was “korrelieren in signifikanter Weise” and the “delta, theta und alpha2 Frequenzen” value (i.p., 160 mg/kg, first hour after administration) was “Abfall”. The “duration for which the pattern (decrease of delta, theta, alpha2) was observed” value (i.p., 160 mg/kg, whole test period) was 5 Stunden, the “Veränderungen der Leistungsdichte in den einzelen Hirnregionen” value (i.p., 80 and 160 mg/kg, versus pre-drug baseline) was “dosis-abhängig zu deutlichen Veränderungen” and the “Muster der EEG-Frequenzänderungen” value (i.p., after 80 and 160 mg/kg, versus saline) was “stabiles, statistisch signifikantes Muster”.
